Data: ChEMBL document CHEMBL3407493, “Medicinal uses, phytochemistry and pharmacology of family Sterculiaceae: a review” (Eur J Med Chem, 2015)
≈ marks a conversion by molar mass, not a printed value.

How the values were obtained:
SK-MEL-28 = test: Cytotoxicity against human SK-MEL-28 cells assessed as growth inhibition; assay type: functional, cell-based
[1] = Toxicity in Artemia salina Linn.; assay type: organism-based; details: in vivo
Klebsiella pneumoniae = test: Antibacterial activity against Klebsiella pneumoniae ATCC 10031; assay type: functional
Escherichia coli = test: Antibacterial activity against Escherichia coli ATCC 11103; assay type: functional
[2] = Antibacterial activity against Salmonella setubal ATCC 19196; assay type: functional, Salmonella enterica subsp. enterica serovar Setubal; details: Salmonella enterica
[3] = Antioxidant activity assessed as DPPH radical scavenging activity; assay type: physicochemical
Liver microsome = test: Antioxidant activity in rat liver microsomes assessed as inhibition of NADPH-dependent lipid peroxidation; assay type: functional
[4] = Antioxidant activity assessed as inhibition of linoleic acid autooxidation; assay type: physicochemical
[5] = Cytotoxicity against human Bel7402 cells assessed as growth inhibition; assay type: functional, cell-based; details: Bel-7402

Row | IC50 [3] [µg/mL] | IC50 (Liver microsome) [µg/mL] | IC50 [4] [µg/mL] | SMILES | also measured
1 | 2.1 (≈ 1.82 µM) | 25 (≈ 21.6 µM) | 2.7 (≈ 2.34 µM) | Oc1cc(O)c2c(c1)O[C@H](c1ccc(O)c(O)c1)[C@H](O)[C@H]2c1c(O)cc(O)c2c1O[C@H](c1ccc(O)c(O)c1)[C@H](O)[C@H]2c1c(O)cc(O)c2c1O[C@H](c1ccc(O)c(O)c1)[C@H](O)[C@H]2c1c(O)cc(O)c2c1O[C@H](c1ccc(O)c(O)c1)[C@H](O)C2 | –
2 | 3.9 (≈ 5.28 µM) | 18 (≈ 24.4 µM) | 2.5 (≈ 3.38 µM) | OC[C@H]1O[C@@H](O[C@H]2[C@H]3c4c(O)cc(O)cc4O[C@]2(c2ccc(O)c(O)c2)Oc2cc(O)c4c(c23)O[C@H](c2ccc(O)c(O)c2)[C@H](O)C4)[C@H](O)[C@@H](O)[C@H]1O | –
3 | 3.9 (≈ 5.5 µM) | 21 (≈ 29.6 µM) | 2.2 (≈ 3.1 µM) | Oc1cc(O)c2c(c1)O[C@]1(c3ccc(O)c(O)c3)Oc3cc(O)c4c(c3[C@H]2[C@@H]1O[C@@H]1OC[C@@H](O)[C@H](O)[C@H]1O)O[C@H](c1ccc(O)c(O)c1)[C@H](O)C4 | –
4 | 2.4 (≈ 2.34 µM) | 36 (≈ 35.1 µM) | 2 (≈ 1.95 µM) | OC[C@H]1O[C@@H](O[C@@H]2[C@@H]3c4c(O)cc(O)cc4O[C@]2(c2ccc(O)c(O)c2)Oc2cc(O)c4c(c23)O[C@H](c2ccc(O)c(O)c2)[C@H](O)[C@H]4c2c(O)cc(O)c3c2O[C@H](c2ccc(O)c(O)c2)[C@H](O)C3)[C@H](O)[C@@H](O)[C@H]1O | –
5 | 2.3 (≈ 2.31 µM) | 28 (≈ 28.1 µM) | 1.9 (≈ 1.91 µM) | Oc1cc(O)c2c(c1)O[C@]1(c3ccc(O)c(O)c3)Oc3cc(O)c4c(c3[C@@H]2[C@H]1O[C@@H]1OC[C@@H](O)[C@H](O)[C@H]1O)O[C@H](c1ccc(O)c(O)c1)[C@H](O)[C@H]4c1c(O)cc(O)c2c1O[C@H](c1ccc(O)c(O)c1)[C@H](O)C2 | –
6 | 2.3 (≈ 3.98 µM) | 12 (≈ 20.7 µM) | 2.3 (≈ 3.98 µM) | Oc1cc(O)c2c(c1)O[C@H](c1ccc(O)c(O)c1)[C@H](O)[C@H]2c1c(O)cc2c(c1O)C[C@@H](O)[C@@H](c1ccc(O)c(O)c1)O2 | –
7 | 4.6 (≈ 10.7 µM) | 5.6 (≈ 13 µM) | 7.7 (≈ 17.9 µM) | Cc1c(C)c2c(c(C)c1O)CCC(C)(CCCC(C)CCCC(C)CCCC(C)C)O2 (racemic) [alpha-TOCHOPHEROL] | –
8 | 0.62 (≈ 2.14 µM) | 29 (≈ 99.9 µM) | 0.62 (≈ 2.14 µM) | Oc1cc(O)c2c(c1)O[C@H](c1ccc(O)c(O)c1)[C@H](O)C2 [(-)-EPICATECHIN] | –
9 | 1.4 (≈ 2.42 µM) | 12 (≈ 20.7 µM) | – | Oc1cc(O)c2c(c1)O[C@H](c1ccc(O)c(O)c1)[C@H](O)[C@H]2c1c(O)cc(O)c2c1O[C@H](c1ccc(O)c(O)c1)[C@H](O)C2 [PROCYANIDIN B2] | –
10 | 6.2 (≈ 7.15 µM) | 68 (≈ 78.5 µM) | 5.3 (≈ 6.11 µM) | Oc1cc(O)c2c(c1)O[C@H](c1ccc(O)c(O)c1)[C@H](O)[C@H]2c1c(O)cc(O)c2c1O[C@H](c1ccc(O)c(O)c1)[C@H](O)[C@H]2c1c(O)cc(O)c2c1O[C@H](c1ccc(O)c(O)c1)[C@H](O)C2 [PROCYANIDIN C1] | –

The remaining lines, values behind:

Row | SMILES | IC50 [3] [µg/mL] | IC50 (Liver microsome) [µg/mL] | IC50 [4] [µg/mL] | also measured
11 | C=C(C)[C@@H]1CC[C@]2(C(=O)O)CC[C@]3(C)[C@H](CC[C@@H]4[C@@]5(C)CC[C@H](OC(=O)/C=C/c6ccc(O)c(O)c6)C(C)(C)[C@@H]5CC[C@]43C)[C@@H]12 | – | – | – | IC50 (SK-MEL-28): 81700 nM
12 | CC1=C2OC[C@@H](C)c3c(O)cc(C)c(c32)C(=O)C1=O | – | – | – | LC50 [1]: 50.7 µg/mL (≈ 196 µM)
13 | CC(C)CC(C(=O)NC1C(=O)NC(Cc2ccccc2)C(=O)N/C=C\c2ccc(cc2)OC1C(C)C)N(C)C (configuration not stated) | – | – | – | MIC (Klebsiella pneumoniae): 25 µg/mL (≈ 46.8 µM); MIC (Escherichia coli): 25 µg/mL (≈ 46.8 µM); MIC [2]: 50 µg/mL (≈ 93.5 µM)
14 | COc1cc(C)c2oc(=O)c(C)cc2c1C(C)C | – | – | – | LC50 [1]: 24.2 µg/mL (≈ 98.2 µM)
15 | Cc1cc2c(C(C)C)c(O)cc(C)c2oc1=O | – | – | – | LC50 [1]: 0.61 µg/mL (≈ 2.63 µM)
16 | Cc1c2c3c(ccc(C)c3oc1=O)C(C)CO2 (configuration not stated) | – | – | – | LC50 [1]: 188 µg/mL (≈ 816 µM)
17 | C=C(C)[C@@H]1CC[C@]2(C(=O)O)CC[C@]3(COC(=O)c4ccccc4)[C@H](CC[C@@H]4[C@@]5(C)CC[C@H](OC(C)=O)C(C)(C)[C@@H]5CC[C@]43C)[C@@H]12 | – | – | – | IC50 (SK-MEL-28): 32000 nM
18 | CC1=Cc2c(C(C)C)ccc(C)c2C(=O)C1=O | – | – | – | LC50 [1]: 2.08 µg/mL (≈ 9.11 µM)
19 | O=C(N[C@H](CO)[C@H](O)c1ccc([N+](=O)[O-])cc1)C(Cl)Cl [CHLORAMPHENICOL] | – | – | – | MIC (Klebsiella pneumoniae): 1.56 µg/mL (≈ 4.83 µM); MIC (Escherichia coli): 3.12 µg/mL (≈ 9.66 µM); MIC [2]: 3.12 µg/mL (≈ 9.66 µM)
20 | CC(C)(O)/C=C/C(=O)[C@](C)(O)[C@H]1[C@H](O)C[C@@]2(C)[C@@H]3CC=C4[C@@H](C[C@H](O)C(=O)C4(C)C)[C@]3(C)C(=O)C[C@]12C [CUCURBITACIN D] | – | – | – | IC50 [5]: 1410 nM; IC50 (SK-MEL-28): 1220 nM
21 | CC1(C)C(=O)[C@@H](O)C[C@@H]2C1=CC[C@@H]1[C@@]2(C)C(=O)C[C@]2(C)[C@@H]([C@@](C)(O)C(=O)CC(O)C(C)(C)O)[C@H](O)C[C@@]12C (some centres not stated) [CUCURBITACIN G] | – | – | – | IC50 [5]: 1370 nM; IC50 (SK-MEL-28): 1280 nM
22 | CC1=Cc2c(c(C)cc(O)c2C(C)C)C(=O)C1=O [MANSONONE G] | – | – | – | LC50 [1]: 64.4 µg/mL (≈ 263 µM)
